Measured values taken from the NIST ThermoML archive (doi:10.1016/j.fluid.2006.09.024).
Numbers after ± are expanded uncertainties.

Experiments:
[1] = Liquid, Ebulliometric method (Recirculating still)
[2] = xn = mol fraction of the nth substance listed; details: 101 kPa, Liquid

C1C[C@@H]2[C@@H]3CC[C@@H](C3)[C@@H]2C1 [endo-tetrahydrodicyclopentadiene]
[1]
Details	vapor or sublimation pressure [kPa]
344.02 K	2 ± 0.2
358.17 K	3.5 ± 0.2
367.23 K	5 ± 0.2
384.68 K	10 ± 0.2
396.77 K	15 ± 0.2
405.51 K	20 ± 0.2
412.5 K	25 ± 0.2
418.51 K	30 ± 0.2
423.84 K	35 ± 0.2
428.42 K	40 ± 0.2
432.64 K	45 ± 0.2
436.48 K	50 ± 0.2
440.06 K	55 ± 0.2
443.43 K	60 ± 0.2
446.4 K	65 ± 0.2
451.93 K	75 ± 0.2
454.45 K	80 ± 0.2
456.82 K	85 ± 0.2
458.86 K	90 ± 0.2
460.9 K	95 ± 0.2
462.76 K	100 ± 0.2
463.6 K	101.6 ± 0.2

C1C[C@@H]2[C@@H]3CC[C@@H](C3)[C@@H]2C1 [endo-tetrahydrodicyclopentadiene] + C1C[C@@H]2[C@H]3CC[C@H](C3)[C@@H]2C1
[2]
Details	kinematic viscosity, 288.15 K [m2/s]	kinematic viscosity, 298.15 K [m2/s]	kinematic viscosity, 308.15 K [m2/s]	kinematic viscosity, 318.15 K [m2/s]	mass density, 288.15 K [kg/m3]	mass density, 298.15 K [kg/m3]	mass density, 308.15 K [kg/m3]	mass density, 318.15 K [kg/m3]
x2 = 0.4028	6.06e-06 ± 1.6e-07	4.7e-06 ± 1.3e-07	3.67e-06 ± 1.1e-07	2.99e-06 ± 8.7e-08	954.39 ± 0.27	946.44 ± 0.29	938.48 ± 0.3	930.47 ± 0.32
x2 = 0.5145	5.23e-06 ± 1.5e-07	4.1e-06 ± 1.2e-07	3.23e-06 ± 9.4e-08	2.67e-06 ± 7.8e-08	951.54 ± 0.27	943.63 ± 0.29	935.68 ± 0.31	927.69 ± 0.32
x2 = 0.6017	4.62e-06 ± 1.3e-07	3.68e-06 ± 1.1e-07	2.96e-06 ± 8.6e-08	2.46e-06 ± 7.3e-08	949.22 ± 0.28	941.29 ± 0.29	933.37 ± 0.31	925.41 ± 0.33
x2 = 0.6956	4.18e-06 ± 1.2e-07	3.35e-06 ± 9.7e-08	2.72e-06 ± 8e-08	2.29e-06 ± 6.8e-08	946.72 ± 0.28	938.85 ± 0.3	930.9 ± 0.31	923 ± 0.33
x2 = 0.7966	3.86e-06 ± 1.1e-07	3.06e-06 ± 8.9e-08	2.49e-06 ± 7.3e-08	2.12e-06 ± 6.3e-08	944.23 ± 0.29	936.36 ± 0.3	928.49 ± 0.32	920.59 ± 0.33
x2 = 0.9069	3.47e-06 ± 1e-07	2.82e-06 ± 8.2e-08	2.31e-06 ± 6.8e-08	1.97e-06 ± 5.9e-08	941.57 ± 0.29	933.78 ± 0.31	925.9 ± 0.32	918.06 ± 0.34
x2 = 0.9933	3.18e-06 ± 9.2e-08	2.65e-06 ± 7.8e-08	2.22e-06 ± 6.6e-08	1.87e-06 ± 5.6e-08	939.58 ± 0.29	931.79 ± 0.31	923.99 ± 0.32	916.14 ± 0.34

C1C[C@@H]2[C@H]3CC[C@H](C3)[C@@H]2C1 [exo-tetrahydrodicyclopentadiene]
[1]
Details	vapor or sublimation pressure [kPa]
335.45 K	2 ± 0.2
349.97 K	3.5 ± 0.2
360.37 K	5 ± 0.2
379.33 K	10 ± 0.2
391.56 K	15 ± 0.2
400.07 K	20 ± 0.2
407.31 K	25 ± 0.2
413.28 K	30 ± 0.2
418.87 K	35 ± 0.2
423.1 K	40 ± 0.2
427.5 K	45 ± 0.2
431.46 K	50 ± 0.2
434.98 K	55 ± 0.2
438.26 K	60 ± 0.2
441.37 K	65 ± 0.2
444.02 K	70 ± 0.2
447.09 K	75 ± 0.2
449.62 K	80 ± 0.2
452.19 K	85 ± 0.2
454.39 K	90 ± 0.2
456.75 K	95 ± 0.2
458.83 K	100 ± 0.2
459.38 K	101.4 ± 0.2
